Our source for the JAK2/JAK1 values is patent US10370387B2, “Tricyclic fused thiophene derivatives as JAK inhibitors” (Incyte Corporation, priority 2012, dated 2019).

This assay relates to human JAK1. The assay is described as follows: In vitro JAK kinase assay (HTRF, phosphorylation of biotinylated peptide), JAK1. Type of assay: biochemical. The settings on record: ratio of JAK2 IC50 to JAK1 IC50, 1 mM ATP. As to the method: Compounds herein were tested for inhibitory activity of JAK targets according to the following in vitro assay described in Park et al., Analytical Biochemistry 1999, 269, 94-104. The catalytic domains of human JAK1 (a.a. 837-1142), JAK2 (a.a. 828-1132) and JAK3 (a.a. 781-1124) were expressed using baculovirus in insect cells and purified. The catalytic activity of JAK1, JAK2 or JAK3 was assayed by measuring the phosphorylation of a biotinylated peptide. The phosphorylated peptide was detected by homogenous time resolved fluorescence (HTRF). IC50s of compounds were measured for each kinase in the 40 μL reactions that contain the enzyme, ATP and 500 nM peptide in 50 mM Tris (pH 7.8) buffer with 100 mM NaCl, 5 mM DTT, and 0.1 mg/mL (0.01%) BSA. For the 1 mM IC50 measurements, ATP concentration in the reactions was 1 mM. Reactions were carried out at room temperature for 1 hour and then stopped with 20 μL 45 mM EDTA, 300 nM SA-APC, 6 nM Eu-Py20 in assay buffer (Perkin Elmer, Boston, Mass.). Binding to the Europium labeled antibody took place for 40 minutes and HTRF signal was measured on a PHERA star plate reader (BMG, Cary, N.C.). The Example compounds were each tested in the Example A assay (see Table 1 for data for the compounds of the examples as tested by the assay of Example A at 1 mM ATP).
Regarding `C[C@@H](O)c1nc2cnc3ccsc3c2n1C1CCN(CC(F)(F)F)CC1` [Example 15, (1R)-1-{1-[1-(2,2,2-Trifluoroethyl)piperidin-4-yl]-1H-imidazo[4,5-d]thieno[3,2-b]pyridin-2-yl}ethanol], the JAK2/JAK1 is on record as above 9.
Turning to `C[C@@H](O)c1nc2cnc3ccsc3c2n1C1CCC(O)(CC#N)CC1` (single isomer, unassigned) [24 (first peak)], the JAK2/JAK1 is reported as above 10.
Regarding `CCc1nc2cnc3ccsc3c2n1[C@@H]1CC[C@@H](CC#N)[C@@H](O)C1` (mixture of isomers) [Example 35], the JAK2/JAK1 was above 10.
As for `Cc1nc2cnc3ccsc3c2n1[C@H]1CC[C@H](CC#N)CC1` [Example 48, [trans-4-(2-Methyl-1H-imidazo[4,5-d]thieno[3,2-b]pyridin-1-yl)cyclohexyl]acetonitrile], the JAK2/JAK1 is above 7.
On to `N#CC[C@H]1CC[C@H](n2c(C3CNC3)nc3cnc4ccsc4c32)CC1` [Example 28, [trans-4-(2-Azetidin-3-yl-1H-imidazo[4,5-d]thieno[3,2-b]pyridin-1-yl)cyclohexyl]acetonitrile], for which the JAK2/JAK1 is given as above 7.
Regarding `C[C@@H](O)c1nc2cnc3ccsc3c2n1[C@H]1CC[C@H](CCC#N)CC1` [Example 8, 3-(trans-4-{2-[(1R)-1-Hydroxyethyl]-1H-imidazo[4,5-d]thieno[3,2-b]pyridin-1-yl}cyclohexyl)propanenitrile], the JAK2/JAK1 is on record as above 10.
As to `CCOC(=O)N1CCC[C@H](n2c([C@@H](C)O)nc3cnc4ccsc4c32)C1` [Example 50, Ethyl (3S)-3-{2-[(1R)-1-hydroxyethyl]-1H-imidazo[4,5-d]thieno[3,2-b]pyridin-1-yl}piperidine-1-carboxylate], the JAK2/JAK1 was above 10.
The figure for `CCc1nc2cnc3ccsc3c2n1[C@H]1CC[C@H](CC#N)CC1` [Example 47, [trans-4-(2-Ethyl-1H-imidazo[4,5-d]thieno[3,2-b]pyridin-1-yl)cyclohexyl]acetonitrile] is above 10.
For the molecule `Cc1nc2cnc3ccsc3n2c1-c1ccc(CC#N)cc1` [Example 33, [4-(7-Methylimidazo[1,2-a]thieno[3,2-e]pyrazin-8-yl)phenyl]acetonitrile], the JAK2/JAK1 was above 7.
Turning to `C[C@@H](O)c1nc2cnc3ccsc3c2n1[C@H]1CCCN(C(=O)CCC(F)(F)F)C1` [Example 52, (1R)-1-{1-[(3S)-1-(4,4,4-Trifluorobutanoyl)piperidin-3-yl]-1H-imidazo[4,5-d]thieno[3,2-b]pyridin-2-yl}ethanol], the JAK2/JAK1 is on record as above 10.
In the case of “[(1R,2S,4S)-4-(2-Ethyl-1H-imidazo[4,5-d]thieno[3,2-b]pyridin-1-yl)-2-hydroxycyclohexyl]acetonitrile and [(1S,2R,4R)-4-(2-ethyl-1H-imidazo[4,5-d]thieno[3,2-b]pyridin-1-yl)-2-hydroxycyclohexyl]acetonitrile [40 (first peak)]” it was above 10; in that of `CC(C)OC(=O)NC[C@H]1CC[C@H](n2c(CC#N)nc3cnc4ccsc4c32)CC1` [Example 88, Isopropyl ({trans-4-[2-(cyanomethyl)-1H-imidazo[4,5-d]thieno[3,2-b]pyridin-1-yl]cyclohexyl}methyl)carbamate], above 10; in that of `CC(=O)NC[C@H]1CC[C@H](n2c([C@@H](C)O)nc3cnc4ccsc4c32)CC1` [Example 79, N-[(trans-4-{2-[(1R)-1-Hydroxyethyl]-1H-imidazo[4,5-d]thieno[3,2-b]pyridin-1-yl}cyclohexyl)methyl]acetamide], above 10.
Consider `CCCOC(=O)NC[C@H]1CC[C@H](n2c([C@@H](C)O)nc3cnc4ccsc4c32)CC1` [Example 83, Propyl [(trans-4-{2-[(1R)-1-hydroxyethyl]-1H-imidazo[4,5-d]thieno[3,2-b]pyridin-1-yl}cyclohexyl)methyl]carbamate], for which the JAK2/JAK1 is given as above 10.
Turning to `N#CC[C@H]1CC[C@H](n2c(CO)nc3cnc4ccsc4c32)CC1` [Example 17, {trans-4-[2-(Hydroxymethyl)-1H-imidazo[4,5-d]thieno[3,2-b]pyridin-1-yl]cyclohexyl}acetonitrile], the JAK2/JAK1 is above 10.
Take `CC(=O)NC(C)c1nc2cnc3ccsc3c2n1[C@H]1CC[C@H](CC#N)OC1` (stereo partly drawn) [Example 69, N-(1-{1-[(3S,6R)-6-(Cyanomethyl)tetrahydro-2H-pyran-3-yl]-1H-imidazo[4,5-d]thieno[3,2-b]pyridin-2-yl}ethyl) acetamide]: the JAK2/JAK1 was above 10.
Consider `C[C@@H](O)c1nc2cnc3ccsc3c2n1[C@@H]1CC[C@@H](CC#N)OC1` [Example 44, ((2S,5R)-5-{2-[(1R)-1-Hydroxyethyl]-1H-imidazo[4,5-d]thieno[3,2-b]pyridin-1-yl}tetrahydro-2H-pyran-2-yl)acetonitrile], for which the JAK2/JAK1 is reported as above 10.
As for `CS(=O)(=O)NCc1nc2cnc3ccsc3c2n1[C@H]1CC2CCC1C2` (stereo partly drawn) [Example 22, N-((1-((2S)-Bicyclo[2.2.1]heptan-2-yl)-1H-imidazo[4,5-d]thieno[3,2-b]pyridin-2-yl)methyl)methanesulfonamide], the JAK2/JAK1 is given as above 4.
In the case of `CS(=O)(=O)NCc1nc2cnc3ccsc3c2n1[C@H]1CC[C@H](CC#N)CC1` [Example 18, N-({1-[trans-4-(Cyanomethyl)cyclohexyl]-1H-imidazo[4,5-d]thieno[3,2-b]pyridin-2-yl}methyl)methanesulfonamide], the JAK2/JAK1 is reported as above 10.
Consider `C[C@@H](O)c1nc2cnc3ccsc3c2n1[C@H]1CC[C@H](CO)CC1` [Example 11, (1R)-1-{1-[trans-4-(Hydroxymethyl)cyclohexyl]-1H-imidazo[4,5-d]thieno[3,2-b]pyridin-2-yl}ethanol], for which the JAK2/JAK1 is on record as above 10.
Take `N#CC[C@H]1CC[C@H](n2c(C3CC3)nc3cnc4ccsc4c32)CO1` [Example 43, [(2R,5S)-5-(2-Cyclopropyl-1H-imidazo[4,5-d]thieno[3,2-b]pyridin-1-yl)tetrahydro-2H-pyran-2-yl]acetonitrile]: the JAK2/JAK1 is reported as above 10.
On to `CC(C)OC(=O)NC[C@H]1CC[C@H](n2c([C@@H](C)O)nc3cnc4ccsc4c32)CO1` [Example 76, Isopropyl [((2R,5S)-5-{2-[(1R)-1-hydroxyethyl]-1H-imidazo[4,5-d]thieno[3,2-b]pyridin-1-yl}tetrahydro-2H-pyran-2-yl)methyl]carbamate], for which the JAK2/JAK1 is listed as above 10.
Consider `C[C@@H](O)c1nc2cnc3ccsc3c2n1[C@H]1CC[C@@H](CC#N)OC1` [Example 21, ((2S,5S)-5-{2-[(1R)-1-Hydroxyethyl]-1H-imidazo[4,5-d]thieno[3,2-b]pyridin-1-yl}tetrahydro-2H-pyran-2-yl)acetonitrile], for which the JAK2/JAK1 is above 10.
As for `C[C@@H](O)c1nc2cnc3ccsc3c2n1[C@H]1CC[C@@H](C#N)CC1` [Example 7, cis-4-{2-[(1R)-1-Hydroxyethyl]-1H-imidazo[4,5-d]thieno[3,2-b]pyridin-1-yl}cyclohexanecarbonitrile], the JAK2/JAK1 is above 10.
In the case of `COC(=O)NC[C@H]1CC[C@H](n2c(CC#N)nc3cnc4ccsc4c32)CC1` [Example 86, Methyl ({trans-4-[2-(cyanomethyl)-1H-imidazo[4,5-d]thieno[3,2-b]pyridin-1-yl]cyclohexyl}methyl)carbamate] it was above 10; in that of `CCC(=O)NC[C@H]1CC[C@H](n2c(CC#N)nc3cnc4ccsc4c32)CC1` [Example 89, N-({trans-4-[2-(Cyanomethyl)-1H-imidazo[4,5-d]thieno[3,2-b]pyridin-1-yl]cyclohexyl}methyl)propanamide], above 10.
Regarding `C[C@@H](O)c1nc2cnc3ccsc3c2n1[C@H]1CCCN(C(=O)CCC#N)C1` [Example 58, 4-((3S)-3-{2-[(1R)-1-Hydroxyethyl]-1H-imidazo[4,5-d]thieno[3,2-b]pyridin-1-yl}piperidin-1-yl)-4-oxobutanenitrile], the JAK2/JAK1 is given as above 10.
The figure for `C[C@@H](O)c1nc2cnc3ccsc3c2n1C1CCC(NCCC#N)CC1` (single isomer, unassigned) [30 (first peak)] is above 2.
As for `C[C@@H](O)c1nc2cnc3ccsc3c2n1[C@H]1CC[C@H](CCS(C)(=O)=O)CC1` [Example 5, (1R)-1-(1-{trans-4-[2-(Methylsulfonyl)ethyl]cyclohexyl}-1H-imidazo[4,5-d]thieno[3,2-b]pyridin-2-yl)ethanol], the JAK2/JAK1 is recorded as above 10.
For the molecule `Cc1nc2cnc3ccsc3c2n1[C@H]1CC[C@H](CC#N)OC1` [Example 38, [(2R,5S)-5-(2-Methyl-1H-imidazo[4,5-d]thieno[3,2-b]pyridin-1-yl)tetrahydro-2H-pyran-2-yl]acetonitrile], the JAK2/JAK1 is listed as above 10.
The figure for `C[C@@H](O)c1nc2cnc3ccsc3c2n1[C@H]1CC[C@H](CC#N)OC1` [Example 20, ((2R,5S)-5-{2-[(1R)-1-Hydroxyethyl]-1H-imidazo[4,5-d]thieno[3,2-b]pyridin-1-yl}tetrahydro-2H-pyran-2-yl)acetonitrile] is above 10; for `C[C@@H](O)c1nc2cnc3ccsc3c2n1[C@H]1CCC(CO)OC1` (stereo partly drawn) [Example 19, (1R)-1-{1-[(3S)-6-(Hydroxymethyl)tetrahydro-2H-pyran-3-yl]-1H-imidazo[4,5-d]thieno[3,2-b]pyridin-2-yl}ethanol] it is above 10.
